In patent US20110091540A1, “POLYMERIC COMPOSITIONS AND THEIR METHOD OF USE IN COMBINATION WITH ACTIVE AGENTS” (priority 2007, published 2011):

Assay: Clinical trial of Example 11: fecal metal excretion and stool weight
Format: in vivo, human
Settings: groups receiving mannitol with CLP; passage through the entire gastrointestinal tract
Procedure: For this clinical trial, an open-label, non-randomized, multiple-dose study in eighteen healthy subjects divided into six groups of three subjects in each group was conducted. Subjects were placed into one of six groups on day six, based upon the previous five days of stool weights, so that the average daily stool weight is approximately equal across groups.
CLP (milled) with and without mannitol (Groups 1, 2, 5 and 6) was in size 00 HPMC capsules that are uncoated. CLP (beads) and mannitol alone were supplied in bottles so that they may put into size 00 HPMC capsules (Groups 3 and 4).
CLP was administered according to treatment assignment (Groups 1, 2, 3, and 4) in a fasted state, at least one hour prior to each of four meals/snack and administered with water. Subjects were restricted from additional fluids for one hour pre and post dose. For Groups 5 and 6, CLP is administered in a fed state, thirty minutes following the end of a meal and evening snack, administered with water and without any fluid restriction.
Each sample was individually weighed and the color and consistency of the stool noted. The weights were added together to determine the total fecal weight resulting from each day's intake. The entire weight of stool between the color markers was also totaled separately for both the baseline period and the experimental period. […]

With `OC[C@@H](O)[C@@H](O)[C@H](O)[C@H](O)CO` [mannitol] the “Effect of mannitol on fluid removal (stool weight)” value was “does not increase fluid removal and may decrease fluid removal”.
